{"source": "patent US6841680B2", "about": "“N-type calcium channel antagonists for the treatment of pain” (AstraZeneca AB, priority 2000, dated 2005)"}
{"biological_target": "N-type calcium channel (Homo sapiens, UniProt Q00975)", "sequence (Q00975 whole entry)": "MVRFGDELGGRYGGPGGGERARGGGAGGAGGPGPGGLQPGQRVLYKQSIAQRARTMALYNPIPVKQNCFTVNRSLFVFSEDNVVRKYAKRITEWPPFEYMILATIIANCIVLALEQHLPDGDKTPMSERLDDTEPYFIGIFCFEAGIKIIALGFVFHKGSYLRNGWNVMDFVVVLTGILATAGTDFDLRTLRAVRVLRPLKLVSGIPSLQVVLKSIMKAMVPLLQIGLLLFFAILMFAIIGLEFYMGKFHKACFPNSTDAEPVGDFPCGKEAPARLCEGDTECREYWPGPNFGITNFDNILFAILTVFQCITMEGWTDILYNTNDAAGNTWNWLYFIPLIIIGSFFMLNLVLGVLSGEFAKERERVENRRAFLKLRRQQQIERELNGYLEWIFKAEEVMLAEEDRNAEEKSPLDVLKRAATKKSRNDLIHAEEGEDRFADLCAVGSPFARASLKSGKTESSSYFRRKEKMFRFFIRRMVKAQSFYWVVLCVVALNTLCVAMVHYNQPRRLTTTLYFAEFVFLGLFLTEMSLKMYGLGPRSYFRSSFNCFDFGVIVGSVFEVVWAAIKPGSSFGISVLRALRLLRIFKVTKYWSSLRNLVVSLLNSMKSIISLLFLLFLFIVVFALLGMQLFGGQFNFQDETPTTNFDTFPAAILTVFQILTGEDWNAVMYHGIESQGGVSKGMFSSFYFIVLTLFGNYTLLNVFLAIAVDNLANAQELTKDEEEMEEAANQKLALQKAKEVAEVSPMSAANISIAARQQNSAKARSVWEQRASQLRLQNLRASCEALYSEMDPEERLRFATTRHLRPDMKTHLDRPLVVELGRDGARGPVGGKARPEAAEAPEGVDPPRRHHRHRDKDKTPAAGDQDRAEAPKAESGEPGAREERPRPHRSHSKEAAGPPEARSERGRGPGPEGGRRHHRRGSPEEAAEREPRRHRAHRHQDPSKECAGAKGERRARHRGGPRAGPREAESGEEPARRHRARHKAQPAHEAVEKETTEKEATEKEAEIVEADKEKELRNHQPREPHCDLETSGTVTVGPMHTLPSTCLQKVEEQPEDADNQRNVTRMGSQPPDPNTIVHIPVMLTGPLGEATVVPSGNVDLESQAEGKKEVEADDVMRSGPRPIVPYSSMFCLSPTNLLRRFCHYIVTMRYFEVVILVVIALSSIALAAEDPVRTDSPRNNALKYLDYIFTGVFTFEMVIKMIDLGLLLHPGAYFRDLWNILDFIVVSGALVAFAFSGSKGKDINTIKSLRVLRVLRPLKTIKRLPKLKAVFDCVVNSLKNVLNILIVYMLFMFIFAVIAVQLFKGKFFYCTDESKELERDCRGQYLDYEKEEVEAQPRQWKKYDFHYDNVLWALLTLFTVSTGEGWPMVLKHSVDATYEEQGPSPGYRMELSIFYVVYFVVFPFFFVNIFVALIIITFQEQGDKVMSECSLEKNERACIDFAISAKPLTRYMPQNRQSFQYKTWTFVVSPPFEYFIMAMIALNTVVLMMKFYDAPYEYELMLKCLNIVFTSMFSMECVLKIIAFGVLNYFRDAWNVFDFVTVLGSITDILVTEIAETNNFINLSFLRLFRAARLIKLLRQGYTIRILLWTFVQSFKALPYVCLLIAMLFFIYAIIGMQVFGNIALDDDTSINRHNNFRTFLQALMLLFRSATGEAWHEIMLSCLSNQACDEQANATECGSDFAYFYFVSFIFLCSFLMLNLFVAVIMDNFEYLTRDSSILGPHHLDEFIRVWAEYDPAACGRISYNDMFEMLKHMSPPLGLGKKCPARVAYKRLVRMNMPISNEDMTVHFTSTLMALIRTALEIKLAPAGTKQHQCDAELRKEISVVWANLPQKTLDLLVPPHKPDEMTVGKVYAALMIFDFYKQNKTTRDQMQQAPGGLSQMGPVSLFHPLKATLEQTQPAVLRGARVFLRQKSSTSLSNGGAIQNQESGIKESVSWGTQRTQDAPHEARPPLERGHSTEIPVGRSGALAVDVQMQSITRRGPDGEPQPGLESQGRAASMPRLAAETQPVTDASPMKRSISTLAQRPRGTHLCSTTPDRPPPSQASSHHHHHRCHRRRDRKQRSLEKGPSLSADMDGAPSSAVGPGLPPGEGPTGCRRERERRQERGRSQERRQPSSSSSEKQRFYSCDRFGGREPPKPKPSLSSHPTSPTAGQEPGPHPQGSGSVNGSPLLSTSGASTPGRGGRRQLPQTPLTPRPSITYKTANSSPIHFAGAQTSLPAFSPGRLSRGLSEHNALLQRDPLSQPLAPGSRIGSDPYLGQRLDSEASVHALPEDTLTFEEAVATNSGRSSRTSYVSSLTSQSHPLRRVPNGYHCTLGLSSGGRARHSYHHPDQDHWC", "sequence (P54289 25-1103 partner)": "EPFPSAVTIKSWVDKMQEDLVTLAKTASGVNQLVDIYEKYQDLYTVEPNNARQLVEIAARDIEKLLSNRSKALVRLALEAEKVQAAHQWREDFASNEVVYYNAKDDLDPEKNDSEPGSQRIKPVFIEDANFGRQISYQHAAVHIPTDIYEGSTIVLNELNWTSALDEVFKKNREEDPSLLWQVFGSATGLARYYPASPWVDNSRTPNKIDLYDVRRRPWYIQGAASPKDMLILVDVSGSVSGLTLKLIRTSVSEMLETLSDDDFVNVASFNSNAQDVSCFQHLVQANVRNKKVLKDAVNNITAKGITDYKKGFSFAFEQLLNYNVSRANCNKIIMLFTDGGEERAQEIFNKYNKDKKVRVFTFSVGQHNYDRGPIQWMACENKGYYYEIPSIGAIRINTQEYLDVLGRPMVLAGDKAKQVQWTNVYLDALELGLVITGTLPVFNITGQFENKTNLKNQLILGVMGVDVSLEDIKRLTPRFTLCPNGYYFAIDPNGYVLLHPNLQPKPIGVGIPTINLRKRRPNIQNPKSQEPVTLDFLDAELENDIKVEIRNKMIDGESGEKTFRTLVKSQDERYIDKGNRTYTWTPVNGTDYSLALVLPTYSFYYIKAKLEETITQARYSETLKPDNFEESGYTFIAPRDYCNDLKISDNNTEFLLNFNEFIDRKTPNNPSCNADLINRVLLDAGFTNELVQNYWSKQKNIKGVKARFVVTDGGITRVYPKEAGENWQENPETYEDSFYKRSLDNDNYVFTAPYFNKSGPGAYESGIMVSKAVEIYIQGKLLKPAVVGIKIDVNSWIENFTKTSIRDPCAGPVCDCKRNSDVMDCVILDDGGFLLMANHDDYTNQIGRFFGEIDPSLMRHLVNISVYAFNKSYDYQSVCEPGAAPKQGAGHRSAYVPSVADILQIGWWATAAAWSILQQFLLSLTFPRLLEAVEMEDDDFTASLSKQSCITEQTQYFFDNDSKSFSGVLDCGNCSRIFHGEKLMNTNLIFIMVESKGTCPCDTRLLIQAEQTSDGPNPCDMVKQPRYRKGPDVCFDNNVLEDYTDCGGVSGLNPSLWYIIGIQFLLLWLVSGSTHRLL", "sequence (P54284 whole entry partner)": "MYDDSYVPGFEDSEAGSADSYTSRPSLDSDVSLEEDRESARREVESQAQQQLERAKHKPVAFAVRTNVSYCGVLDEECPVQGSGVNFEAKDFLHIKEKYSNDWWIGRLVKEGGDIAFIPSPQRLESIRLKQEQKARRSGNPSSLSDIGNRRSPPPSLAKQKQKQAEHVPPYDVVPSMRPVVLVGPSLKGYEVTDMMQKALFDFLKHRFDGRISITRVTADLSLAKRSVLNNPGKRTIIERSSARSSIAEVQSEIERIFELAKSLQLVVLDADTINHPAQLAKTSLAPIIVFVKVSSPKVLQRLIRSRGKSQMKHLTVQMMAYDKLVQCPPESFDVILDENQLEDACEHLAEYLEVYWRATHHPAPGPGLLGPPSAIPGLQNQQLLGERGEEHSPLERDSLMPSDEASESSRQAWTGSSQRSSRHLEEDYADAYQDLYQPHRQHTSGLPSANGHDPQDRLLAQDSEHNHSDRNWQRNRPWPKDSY", "test": "N-Channel FLIPR assay (IMR32 cells, 80 mM K+ evoked calcium flux)", "format": "cell-based", "conditions": "unit inferred", "units": {"IC50": "µM"}}
{"smiles": "CNc1cc(-c2cccc(F)c2)nc2ccc(-c3ccccc3OC)cc12", "note": "[Example 16, 2-(3-fluorophenyl)-6-(2-methoxyphenyl)-4-methylaminoquinoline]", "IC50": 5.78}
{"smiles": "CNc1cc(-c2cccc(F)c2)nc2ccc(-c3ccccc3Cl)cc12", "note": "[Example 12, 2-(3-fluorophenyl)-6-(2-chlorophenyl)-4-methylaminoquinoline]", "IC50": 10.5}
{"smiles": "CNc1cc(-c2cccc(F)c2)nc2ccc(-c3ccccc3)cc12", "note": "[Example 13, 2-(3-fluorophenyl)-6-phenyl-4-methylaminoquinoline]", "IC50": 8.6}
{"smiles": "CNc1cc(-c2cccc(F)c2)nc2ccc(-c3ccccc3C=O)cc12", "note": "[Example 15, 2-[2-(3-fluorophenyl)-4-(methylamino)-6-quinolinyl]-benzaldehyde]", "IC50": 5.38}
{"smiles": "CNc1cc(-c2cccc(F)c2)nc2ccc(-c3ccccc3C)cc12", "note": "[Example 14, 2-(3-fluorophenyl)-6-(2-methylphenyl)-4-methylaminoquinoline]", "IC50": 8.82}
{"tested_on": "NK-1 receptor", "test": "not given", "conditions": "phenylbenzoquinone-induced writhing and formalin test; Garret et al; cited from earlier work"}
{"smiles": "COc1ccccc1CC(=N)N1C[C@@H]2C(=O)CCC(c3ccccc3)(c3ccccc3)[C@@H]2C1", "note": "[RP 67,580]", "analgesia": "produced analgesia with potency comparable to that of morphine"}
